The results in this text go back to ChEMBL document CHEMBL1201862, “PubChem BioAssay data set” (2004).

The test system of test [1] is BJ. Description: growth inhibition of engineered Ras-driven BJ cells – cell-based, alamar blue fluorescence, cherrypicked samples, dose response (AID 2631).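 Note: confirmatory dose-response assay in RAS-dependent BJ fibroblasts engineered with TERT, LT and ST, with cytotoxicity read by fluorescence.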 Format: functional. To be noted: Homo sapiens. Background: Resazurin is reduced to fluorescent resorufin, in cell work by metabolically active cells.
Test [2] in a line: HEK-293T viability loss after treatment – luminescence, T-cell screen hits, cytotoxicity control for TCR NF-kB inhibitor project, dose response (AID 489026).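 Note: cells exposed to compound about 14 hours before the viability readout.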 Format: functional, cell-based.
For test [3], the target named is T1, Insulin-degrading enzyme (Homo sapiens, UniProt P14735).
T1 sequence (P14735 whole entry): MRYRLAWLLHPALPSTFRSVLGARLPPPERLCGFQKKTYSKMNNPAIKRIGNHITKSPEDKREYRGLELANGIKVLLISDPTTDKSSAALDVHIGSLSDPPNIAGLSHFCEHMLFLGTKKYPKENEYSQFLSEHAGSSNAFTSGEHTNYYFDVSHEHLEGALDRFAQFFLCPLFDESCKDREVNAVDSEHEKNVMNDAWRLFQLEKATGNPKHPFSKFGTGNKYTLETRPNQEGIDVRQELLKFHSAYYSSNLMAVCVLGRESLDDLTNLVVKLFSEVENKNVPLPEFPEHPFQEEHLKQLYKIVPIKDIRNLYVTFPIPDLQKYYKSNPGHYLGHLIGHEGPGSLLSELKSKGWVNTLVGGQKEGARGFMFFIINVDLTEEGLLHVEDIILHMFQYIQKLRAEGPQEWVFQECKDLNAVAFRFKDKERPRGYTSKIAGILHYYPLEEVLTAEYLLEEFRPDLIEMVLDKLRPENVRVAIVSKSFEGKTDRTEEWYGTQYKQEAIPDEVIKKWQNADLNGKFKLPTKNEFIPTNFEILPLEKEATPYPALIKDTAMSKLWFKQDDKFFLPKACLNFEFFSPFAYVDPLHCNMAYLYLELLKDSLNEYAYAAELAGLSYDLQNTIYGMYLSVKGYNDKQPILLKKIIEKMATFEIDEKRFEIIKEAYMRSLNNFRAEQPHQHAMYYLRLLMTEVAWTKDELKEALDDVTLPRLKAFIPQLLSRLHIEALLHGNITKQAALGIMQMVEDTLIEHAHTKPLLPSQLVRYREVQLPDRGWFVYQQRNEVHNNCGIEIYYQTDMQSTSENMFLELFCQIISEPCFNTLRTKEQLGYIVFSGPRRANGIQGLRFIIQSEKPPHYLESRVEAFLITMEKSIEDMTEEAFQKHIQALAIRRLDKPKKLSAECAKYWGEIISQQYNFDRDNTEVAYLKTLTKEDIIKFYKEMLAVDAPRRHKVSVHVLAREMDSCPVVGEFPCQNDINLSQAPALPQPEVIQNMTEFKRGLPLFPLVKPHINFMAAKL
Kind of test: cellular IDE activation of Abeta substrate cleavage – fluorescence polarization, HEK cells, dose response (AID 588439). The test is classed as functional, cell-based. In general terms: In fluorescence polarisation assays a small probe gives low polarisation when free and higher when bound to something large.

Test [4] in a line: Luminescence Cell-Based Dose Response HTS to Identify Inhibitors of 5'UTR Stem-Loop Driven Prion Protein mRNA Translation in H4 Neuroglioblastoma Cells. [Related pubchem assays: 1827 (Project Summary), 1813 (Primary HTS)]. The test is classed as functional.
Test [5] concerns HEK293. Description: optical interference in Abeta FP readout, dose response, artefact control for IDE activator project, biochemical, fluorescence polarization (AID 588442). Format: functional, cell-based. To be noted: Homo sapiens.
A short description of test [6]: fluconazole-exposed Candida albicans growth modulators – fluorescence, retest, confirmation (AID 2467). The test is classed as functional, cell-based.
Test [7] can be described thus: DRD fibroblast viability loss – cell-based, non-viral oncogenic, luminescence, dose response (AID 1934). To be noted: Homo sapiens. The test is classed as functional.
In test [8] the test system is INS1. Description: INS-1E survival protection against cytokine death – cell-based, luminescence, retest, dose response (AID 449756).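 Note: cell death triggered by IL-1 beta plus TNF-alpha plus IFN-gamma mixture; protective hits raise ATP signal compared with cytokine alone wells.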 The test is classed as functional. As to conditions: Rattus norvegicus.
Test [9] concerns HEK293. Description: membrane integrity loss in HEK cells – cell-based, fluorescence, cytotoxicity control for IDE activator project, dose response (AID 588440).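 Note: cytotoxicity by LDH release measuring loss of membrane integrity.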 The test is classed as functional. As to conditions: Homo sapiens.
Test [10] can be described thus: NIH-3T3 fibroblast cytotoxicity, dose response, cytotoxicity control, cell-based, fluorescence, Alamar Blue, secondary assay (AID 2327).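 Note: NIH-3T3 mouse fibroblasts cultured with fluconazole at 8 µg/mL.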 Format: functional.
Test [11] can be described thus: viability loss in HEK293 cells – cell-based, plate reader, cherry-picked samples, cytotoxicity control, dose response (AID 743446). The test is classed as functional.
Test [12] is described as follows: toxicity toward HepG2 liver cells – cell-based, plate reader, cherry-pick, antagonist series, cytotoxicity control, dose response (AID 743416). The test is classed as functional.
Test [13] has as its target T2, Ubiquitin-conjugating enzyme E2 N (Homo sapiens, UniProt P61088).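 Note: Dose-response confirmation in a TR-FRET assay detecting UBC13-driven polyubiquitin chain formation, inhibition measured.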
T2 sequence (P61088 whole entry): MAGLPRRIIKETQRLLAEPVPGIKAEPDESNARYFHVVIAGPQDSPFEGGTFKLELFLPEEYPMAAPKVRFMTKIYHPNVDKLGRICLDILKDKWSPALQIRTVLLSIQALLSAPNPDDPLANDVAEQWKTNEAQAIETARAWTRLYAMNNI
The test is classed as functional.

In test [14] the target is Paired box protein Pax-8 (Homo sapiens, UniProt Q06710). Kind of test: PAX8 transcriptional activity inhibition in RMG-I – RMG-I cells, luciferase, cherry-pick, dose response (AID 687027).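 Note: luciferase reporter driven by Pax8 target thyroperoxidase promoter measured by SteadyGlo luminescence.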 The test is classed as functional, cell-based.
Chain of Paired box protein Pax-8 (Q06710 whole entry): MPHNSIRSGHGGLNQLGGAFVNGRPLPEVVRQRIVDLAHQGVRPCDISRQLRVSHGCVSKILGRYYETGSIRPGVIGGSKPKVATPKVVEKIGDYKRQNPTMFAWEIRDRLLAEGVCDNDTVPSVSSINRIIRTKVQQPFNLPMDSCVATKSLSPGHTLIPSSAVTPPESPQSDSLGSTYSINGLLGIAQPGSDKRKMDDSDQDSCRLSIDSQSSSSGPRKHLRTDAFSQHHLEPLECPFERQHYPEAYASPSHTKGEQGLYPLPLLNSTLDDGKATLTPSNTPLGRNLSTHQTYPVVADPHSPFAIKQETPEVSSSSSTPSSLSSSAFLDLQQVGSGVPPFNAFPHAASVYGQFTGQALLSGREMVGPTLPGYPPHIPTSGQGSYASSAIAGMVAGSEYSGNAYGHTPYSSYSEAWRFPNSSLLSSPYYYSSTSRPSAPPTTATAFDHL
The test system of test [15] is BJ. Description: BJ-TERT-LT-ST fibroblast viability loss – cell-based, RAS-independent, luminescence, dose response (AID 1935).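 Note: BJ fibroblasts immortalized with TERT plus LT and ST oncogenes.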 The test is classed as functional. To be noted: Homo sapiens.
Test [16] is described as follows: reduced cellular PGC1a acetyl-lysine signal – cell-based, cherry-picked samples, dose response (AID 720514).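 Note: potency may reflect raised or lowered acetylation signal.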 The test is classed as functional.
Test [17] can be described thus: alpha-synuclein stem-loop luciferase translation blockers – H4 neuroglioma cells, luminescence, confirmation (AID 1988). Format: functional, cell-based.
Test [18] addresses T1, Insulin-degrading enzyme. Description: recombinant IDE activation, cell-free – biochemical, fluorescence polarization, counter-screen for IDE activator project, dose response (AID 588681).
Test [19] is described as follows: blockers of bursicon-stimulated LGR2 cAMP reporter – cell-based, HEK293, CRE-luciferase reporter, cherry pick, set 2, dose response (AID 743343).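 Note: transfected cells were stimulated with diluted bursicon conditioned medium after compound addition.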 Format: functional. In general terms: A reporter such as luciferase makes a cellular process visible.
For test [20], the system named is BJ. Description: BJ-TERT fibroblast viability loss – cell-based, RAS-independent, luminescence, dose response (AID 1933). The test is classed as functional. To be noted: Homo sapiens.
Test [21] can be described thus: A549 cell cytotoxicity, dose response, cytotoxicity control, plate reader, cherry-pick, antagonist series (AID 743412). Format: functional, cell-based.
Test [22] relates to Streptococcus sp. 'group A'. Description: Streptococcus pyogenes SK(-)GAS viability under kanamycin – luminescence, BacTiterGlo, confirmation, counter-screen for streptokinase expression inhibitor project, dose response (AID 1900). The test is classed as functional, organism-based.
Test [23] in a line: luciferase reporter signal suppression in cells – H4 neuroglioma cells, luminescence, dose response (AID 1990). Format: functional, cell-based.
The test system of test [24] is Streptococcus. Kind of test: GAS UMAA2166 growth inhibition – luminescence, BacTiterGlo, counter-screen for streptokinase expression inhibitor project, dose response (AID 1915).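 Note: potency for reduction of bacterial viability or growth.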 Format: functional, organism-based.
Test [25] can be described thus: blockade of melanocortin 4 receptor signaling – cell-based, plate reader, cherry pick, counter-screen for LGR2 antagonist project, dose response (AID 743444).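 Note: transfected HEK 293 cells stimulated with alpha-MSH peptide; potency of inhibitors of the alpha-MSH evoked signal.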 The test is classed as functional.
Test [26] has as its system BJ. Description: cells. Format: functional, cell-based. As to conditions: Homo sapiens.
The target of test [27] is DNA dC->dU-editing enzyme APOBEC-3A (Homo sapiens, UniProt P31941). Kind of test: SAR analysis of small molecule inhibitors of APOBEC3A DNA Deaminase via a fluorescence-based single-stranded DNA deaminase assay. The test is classed as functional. To be noted: read-out: IC50_Mean.
Chain of DNA dC->dU-editing enzyme APOBEC-3A (P31941 whole entry): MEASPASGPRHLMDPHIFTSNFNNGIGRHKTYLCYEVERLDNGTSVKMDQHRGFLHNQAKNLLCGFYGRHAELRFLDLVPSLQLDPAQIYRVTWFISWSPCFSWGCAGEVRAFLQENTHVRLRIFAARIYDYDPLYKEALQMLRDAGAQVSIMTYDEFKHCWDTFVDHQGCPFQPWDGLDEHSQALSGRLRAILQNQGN
The target in test [28] is DNA dC->dU-editing enzyme APOBEC-3G (Homo sapiens, UniProt Q9HC16). Description: inhibition of APOBEC3G ssDNA deamination – biochemical, fluorescence, single-stranded DNA substrate, SAR follow-up (AID 602136). The test is classed as functional. As to conditions: read-out: IC50_Mean.
Chain of DNA dC->dU-editing enzyme APOBEC-3G (Q9HC16 whole entry): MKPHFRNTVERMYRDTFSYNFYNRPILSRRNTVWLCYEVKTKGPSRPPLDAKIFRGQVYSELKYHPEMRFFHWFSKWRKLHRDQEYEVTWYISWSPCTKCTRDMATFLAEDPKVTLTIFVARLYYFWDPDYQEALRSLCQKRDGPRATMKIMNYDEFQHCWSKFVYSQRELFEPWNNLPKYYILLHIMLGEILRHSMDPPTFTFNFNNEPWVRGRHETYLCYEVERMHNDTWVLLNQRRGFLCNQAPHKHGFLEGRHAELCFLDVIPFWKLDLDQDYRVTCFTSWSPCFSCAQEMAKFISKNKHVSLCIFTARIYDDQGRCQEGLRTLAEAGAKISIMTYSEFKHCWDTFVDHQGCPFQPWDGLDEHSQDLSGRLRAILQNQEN
Test [29] concerns the target DNA (cytosine-5)-methyltransferase 1 (Homo sapiens, UniProt P26358). Description: inhibition of DNA methylation by DNMT1 – biochemical, fluorescent molecular beacon, confirmation (AID 602386). The test is classed as functional.

The source made the active and inactive calls.

Chain of DNA (cytosine-5)-methyltransferase 1 (P26358 whole entry): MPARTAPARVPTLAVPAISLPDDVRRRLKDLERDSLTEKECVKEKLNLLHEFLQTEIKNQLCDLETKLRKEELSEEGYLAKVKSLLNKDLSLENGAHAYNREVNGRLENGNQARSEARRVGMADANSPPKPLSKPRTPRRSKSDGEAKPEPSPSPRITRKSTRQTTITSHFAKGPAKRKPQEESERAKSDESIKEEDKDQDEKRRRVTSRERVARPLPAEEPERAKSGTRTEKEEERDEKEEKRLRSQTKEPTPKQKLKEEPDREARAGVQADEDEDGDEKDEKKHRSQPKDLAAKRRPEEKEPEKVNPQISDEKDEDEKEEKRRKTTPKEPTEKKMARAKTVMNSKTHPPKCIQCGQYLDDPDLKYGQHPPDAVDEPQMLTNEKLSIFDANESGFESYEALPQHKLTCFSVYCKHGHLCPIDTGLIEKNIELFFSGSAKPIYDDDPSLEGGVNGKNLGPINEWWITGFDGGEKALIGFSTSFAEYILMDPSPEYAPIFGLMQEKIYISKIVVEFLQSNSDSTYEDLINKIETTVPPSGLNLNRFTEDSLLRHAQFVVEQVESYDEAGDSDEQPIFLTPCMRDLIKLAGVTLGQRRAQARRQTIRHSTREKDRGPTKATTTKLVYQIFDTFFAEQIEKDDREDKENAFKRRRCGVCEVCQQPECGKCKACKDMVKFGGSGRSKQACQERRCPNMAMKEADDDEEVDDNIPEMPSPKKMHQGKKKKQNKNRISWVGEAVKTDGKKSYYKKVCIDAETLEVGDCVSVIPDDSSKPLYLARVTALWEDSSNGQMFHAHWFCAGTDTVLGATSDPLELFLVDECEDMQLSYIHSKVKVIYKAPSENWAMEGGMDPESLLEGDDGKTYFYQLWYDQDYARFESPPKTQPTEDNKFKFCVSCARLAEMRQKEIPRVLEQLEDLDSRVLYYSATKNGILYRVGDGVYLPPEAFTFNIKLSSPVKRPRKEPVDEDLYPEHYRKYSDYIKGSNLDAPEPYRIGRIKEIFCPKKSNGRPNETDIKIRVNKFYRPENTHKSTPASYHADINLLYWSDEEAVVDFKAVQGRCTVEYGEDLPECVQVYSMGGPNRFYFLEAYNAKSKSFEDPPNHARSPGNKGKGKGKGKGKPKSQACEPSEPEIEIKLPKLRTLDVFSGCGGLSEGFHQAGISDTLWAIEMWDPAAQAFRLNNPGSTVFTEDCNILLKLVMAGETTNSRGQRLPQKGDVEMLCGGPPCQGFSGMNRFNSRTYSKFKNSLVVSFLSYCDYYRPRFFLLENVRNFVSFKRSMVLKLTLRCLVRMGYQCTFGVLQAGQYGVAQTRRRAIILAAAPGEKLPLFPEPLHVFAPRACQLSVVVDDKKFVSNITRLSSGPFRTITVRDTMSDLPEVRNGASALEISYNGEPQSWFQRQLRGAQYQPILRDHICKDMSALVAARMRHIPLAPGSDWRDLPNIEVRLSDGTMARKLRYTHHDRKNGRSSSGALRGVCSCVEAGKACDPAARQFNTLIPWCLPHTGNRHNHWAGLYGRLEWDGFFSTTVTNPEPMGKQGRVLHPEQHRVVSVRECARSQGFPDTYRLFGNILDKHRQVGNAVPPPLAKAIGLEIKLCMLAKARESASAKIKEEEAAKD

What is called EC50 is the concentration giving half of the maximal effect. As a reminder, the AC50 is the concentration at which the activity in the assay is half-maximal. For the compound `CNC[C@@H](CC1CCCCC1)NC[C@H](CC(C)C)NCCc1cccc(C(F)(F)F)c1`, the EC50 in [1] was 1.86 µM (inconclusive); in [3], 6.62 µM (active); in test [4], 8.87 µM (active); in [5], > 54.7 µM (inactive); in test [6] it was > 38 µM (not active); in test [7], 4.69 µM (active). Moreover, the EC50 in [10] was 7.53 µM (inconclusive); in test [15], 2.08 µM (active); in test [17], 7.84 µM (active); in test [18] it was > 54.7 µM (inactive); in test [20], 2.66 µM (inconclusive); in test [22], 2.79 µM (active). Besides, the EC50 is > 120 µM (not active) in [23], 9.26 µM (active) in test [24] and 7.22 µM (inconclusive) in test [26]. Also, the IC50 is 29 µM (inactive) in test [2], 6.35 µM (active) in [9] and > 20 µM (inactive) in test [13]. For the same compound, the AC50 is 3.59 µM (active) in test [8]; 7.81 µM (active) in test [11]; 3.86 µM (active) in test [12]; 9.93 µM (active) in [14]; 3.24 µM (active) in test [16]; 14.6 µM (active) in [19]. Besides, the AC50 was 4.66 µM (active) in test [21] and 22.5 µM (active) in test [25].

With `CCc1ccc(Nc2nc(Nc3ccc(OC)cc3)nc(N3CCCC3)n2)cc1`, the IC50 in test [27] and in [28] was > 99 µM (inactive) in each case.

Turning to `Cc1ccc2cc3c(N)c4c(C)ccc(C)c4nc3nc2c1`, the IC50 in test [29] was > 99 µM (inactive).
